Assay results reported in patent US12398117B2, “Heteroarylamidopyridinol derivative and pharmaceutical composition comprising same as active ingredient for prevention or treatment of autoimmune disease” (INNOVO THERAPEUTICS INC., priority 2019, dated 2025).

Experiments:
[1] = test system: adhesion of intestinal epithelial cells (HT-29) and monocytic cells (U937) induced by TNF-α; assay: Inhibition of TNF-α-induced adhesion of monocytes and intestinal epithelial cells; format: cell-based, human; details: Homo sapiens, test drug 1 μM; TNF-α 10 ng/mL; HT-29/U937; read-out: Inhibitory activity (%)
Method: HT-29 human colon cancer-derived epithelial cells and U937 human-derived monocytes were cultured in RPMI 1640 medium containing 10% FBS and 1% penicillin/streptomycin (PS) in a 37° C., 5% CO2 incubator. When the cells grew more than 80% of the bottom area of the culture flask, they were passaged at a ratio of 1:3 and used in this experiment. HT-29 cells were cultured in a 24-well plate at the density of 2×10^5 cells/cm^2, and the test drug was pretreated in a medium containing 1% FBS and 1% PS for 1 hour. Thereafter, 10 μg/mL of BCECF-AM was treated thereto and reacted at 37° C. for 30 minutes. U937 cells loaded with BCECF and TNF-α (10 ng/mL) were reacted with HT-29 cells previously treated with the test drug at 37° C. for 3 hours. Upon completion of the reaction, the medium was removed, and the culture flask was washed twice with PBS to remove non-adherent U937 cells. In the next step, the cells were lysed by treating with 0.1% Triton X-100 (0.1 M Tris) and reacted at room temperature for 30 minutes. Then, fluorescence was measured and quantified using a fluostar optima microplate reader (BMG Labtechnologies, Germany) (Carvalho et al., 1996; Thapa et al., 2008).

[2] = test system: adhesion of intestinal epithelial cells (HT-29) and monocytic cells (U937) induced by IL-6; assay: Inhibition of IL-6-induced adhesion of monocytes and intestinal epithelial cells; format: cell-based, human; details: Homo sapiens, 3 h; test drug 1 μM; IL-6 10 ng/mL; HT-29/U937; read-out: inhibitory activity (%)
Method: The inhibitory activity test for intestinal epithelial cell-monocyte adhesion by IL-6 was performed using the same method as in the case of TNF-α. HT-29 cells were cultured in a 24-well plate at the density of 2×10^5 cells/cm^2, and the test drug was pretreated in a medium containing 1% FBS and 1% PS for 1 hour. Thereafter, 10 μg/mL of BCECF-AM was treated thereto and reacted at 37° C. for 30 minutes. U937 cells loaded with BCECF and IL-6 (10 ng/mL) were reacted with HT-29 cells previously treated with the test drug at 37° C. for 3 hours. Upon completion of the reaction, the medium was removed, and the culture flask was washed twice with PBS to remove non-adherent U937 cells. In the next step, the cells were lysed by treating with 0.1% Triton X-100 (0.1 M Tris) and reacted at room temperature for 30 minutes. Then, fluorescence was measured and quantified using a fluostar optima microplate reader (BMG Labtechnologies, Germany).

SMILES | inhibition at 1 µM [1] [%] | inhibition at 1 µM [2] [%]
Cc1nc(NC(=O)c2cc3ccccc3s2)c(C)c(C)c1O [Compound X-20, N-(5-hydroxy-3,4,6-trimethylpyridin-2-yl)benzo[b]thiophene-2-carboxamide] | 16.5 | 27
Cc1nc(NC(=O)c2cc3ccccc3n2C)c(C)c(C)c1O [Compound X-02, N-(5-hydroxy-3,4,6-trimethylpyridin-2-yl)-1-methyl-1H-indole-2-carboxamide] | 29.1 | 21.1
COc1c(C)nc(NC(=O)c2sc3cc(F)ccc3c2Cl)c(C)c1C [XI-01, 3-chloro-6-fluoro-N-(5-methoxy-3,4,6-trimethylpyridin-2-yl)benzo[b]thiophene-2-carboxamide] | 9.3 | 4.7
COc1c(C)nc(N(C)C(=O)c2sc3cc(F)ccc3c2Cl)c(C)c1C [XI-02, 3-chloro-6-fluoro-N-(5-methoxy-3,4,6-trimethylpyridin-2-yl)-N-methylbenzo[b]thiophene-2-carboxamide] | 18.5 | 10.9
Cc1nc(NC(=O)c2sc3cc(F)ccc3c2Cl)c(C)c(C)c1OC(=O)c1ccc(Cl)cn1 [XI-14, 6-(3-chloro-6-fluorobenzo[b]thiophene-2-carboxamido)-2,4,5-trimethylpyridin-3-yl 5-chloropicolinate] | 38.1 | 26.8
Cc1nc(NC(=O)c2cc3cc(Cl)ccc3o2)c(C)c(C)c1O [Compound X-16, 5-chloro-N-(5-hydroxy-3,4,6-trimethylpyridin-2-yl)benzofuran-2-carboxamide] | 25.1 | 15.1
Cc1nc(NC(=O)c2sc3ccccc3c2Cl)c(C)c(C)c1O [Compound X-21, 3-chloro-N-(5-hydroxy-3,4,6-trimethylpyridin-2-yl)benzo[b]thiophene-2-carboxamide] | 13.4 | 11.4
Cc1nc(NC(=O)c2sc3cc(F)ccc3c2Cl)c(C)c(C)c1OC(=O)C12CC3CC(CC(C3)C1)C2 [XI-16, 6-(3-chloro-6-fluorobenzo[b]thiophene-2-carboxamido)-2,4,5-trimethylpyridin-3-yl (3r,5r,7r)-adamantane-1-carboxylate] | 29.2 | 20.3
Cc1ccc2c(Cl)c(C(=O)Nc3nc(C)c(O)c(C)c3C)sc2c1 [Compound X-23, 3-chloro-N-(5-hydroxy-3,4,6-trimethylpyridin-2-yl)-6-methylbenzo[b]thiophene-2-carboxamide] | 9.1 | 8.7
Cc1nc(NC(=O)c2cc3cc(F)ccc3[nH]2)c(C)c(C)c1O [Compound X-06, 5-fluoro-N-(5-hydroxy-3,4,6-trimethylpyridin-2-yl)-1H-indole-2-carboxamide] | 49.9 | 42.9
Cc1nc(NC(=O)c2sc3cc(F)ccc3c2Cl)c(C)c(C)c1OC(=O)c1ccccc1 [XI-08, 6-(3-chloro-6-fluorobenzo[b]thiophene-2-carboxamido)-2,4,5-trimethylpyridin-3-yl benzoate] | 7.7 | 6.8
COc1ccc2c(Cl)c(C(=O)Nc3nc(C)c(O)c(C)c3C)sc2c1 [Compound X-26, 3-chloro-N-(5-hydroxy-3,4,6-trimethylpyridin-2-yl)-6-methoxybenzo[b]thiophene-2-carboxamide] | 45.1 | 38.4
Cc1nc(NC(=O)c2cc3cccc(Br)c3[nH]2)c(C)c(C)c1O [Compound X-03, 7-bromo-N-(5-hydroxy-3,4,6-trimethylpyridin-2-yl)-1H-indole-2-carboxamide] | 14.5 | 5
COc1cc2cc(C(=O)Nc3nc(C)c(O)c(C)c3C)[nH]c2cc1OC [Compound X-14, N-(5-hydroxy-3,4,6-trimethylpyridin-2-yl)-5,6-dimethoxy-1H-indole-2-carboxamide] | 36.9 | 29.5
Cc1nc(NC(=O)c2cc3ccc(Br)cc3[nH]2)c(C)c(C)c1O [Compound X-05, 6-bromo-N-(5-hydroxy-3,4,6-trimethylpyridin-2-yl)-1H-indole-2-carboxamide] | 7.5 | 3.4
COc1cccc(C(=O)Oc2c(C)nc(NC(=O)c3sc4cc(F)ccc4c3Cl)c(C)c2C)c1 [XI-10, 6-(3-chloro-6-fluorobenzo[b]thiophene-2-carboxamido)-2,4,5-trimethylpyridin-3-yl 3-methoxybenzoate] | 46.5 | 13.1
Cc1nc(NC(=O)c2cc3cc(OC(F)(F)F)ccc3[nH]2)c(C)c(C)c1O [Compound X-11, N-(5-hydroxy-3,4,6-trimethylpyridin-2-yl)-5-(trifluoromethoxy)-1H-indole-2-carboxamide] | 32.8 | 24.2
Cc1nc(NC(=O)c2sc3cc(F)ccc3c2Cl)c(C)c(C)c1OCC(=O)NC1CCCCC1 [XI-05, 3-chloro-N-(5-(2-(cyclohexylamino)-2-oxoethoxy)-3,4,6-trimethylpyridin-2-yl)-6-fluorobenzo[b]thiophene-2-carboxamide] | 25.5 | 14.5
Cc1nc(NC(=O)c2cc3ccc(Cl)cc3[nH]2)c(C)c(C)c1O [Compound X-04, 6-chloro-N-(5-hydroxy-3,4,6-trimethylpyridin-2-yl)-1H-indole-2-carboxamide] | 30.3 | 25.1
Cc1nc(NC(=O)c2sc3cc(F)ccc3c2Cl)c(C)c(C)c1OCC(=O)NCc1ccccc1 [XI-06, N-(5-(2-(benzylamino)-2-oxoethoxy)-3,4,6-trimethylpyridin-2-yl)-3-chloro-6-fluorobenzo[b]thiophene-2-carboxamide] | ≥ 50 | 54.1
Cc1nc(NC(=O)c2cc3cc(C(F)(F)F)ccc3[nH]2)c(C)c(C)c1O [Compound X-10, N-(5-hydroxy-3,4,6-trimethylpyridin-2-yl)-5-(trifluoromethyl)-1H-indole-2-carboxamide] | ≥ 50 | 47.9
Cc1nc(NC(=O)c2cc3ccccc3o2)c(C)c(C)c1O [Compound X-15, N-(5-hydroxy-3,4,6-trimethylpyridin-2-yl)benzofuran-2-carboxamide] | 4.8 | 42.4
Cc1nc(NC(=O)c2sc3cc(F)ccc3c2Cl)c(C)c(C)c1OCC(=O)NC1CC1 [XI-04, 3-chloro-N-(5-(2-(cyclopropylamino)-2-oxoethoxy)-3,4,6-trimethylpyridin-2-yl)-6-fluorobenzo[b]thiophene-2-carboxamide] | 13.9 | 6.5
COc1ccc(C(=O)Oc2c(C)nc(NC(=O)c3sc4cc(F)ccc4c3Cl)c(C)c2C)cc1 [XI-11, 6-(3-chloro-6-fluorobenzo[b]thiophene-2-carboxamido)-2,4,5-trimethylpyridin-3-yl 4-methoxybenzoate] | 77.2 | 67
Cc1nc(NC(=O)c2sc3cc(F)ccc3c2Cl)c(C)c(C)c1OC(=O)c1ccc(F)cn1 [XI-12, 6-(3-chloro-6-fluorobenzo[b]thiophene-2-carboxamido)-2,4,5-trimethylpyridin-3-yl 5-fluoropicolinate] | 31.9 | 18
COc1cccc2cc(C(=O)Nc3nc(C)c(O)c(C)c3C)oc12 [Compound X-18, N-(5-hydroxy-3,4,6-trimethylpyridin-2-yl)-7-methoxybenzofuran-2-carboxamide] | ≥ 50 | 48.8
Cc1nc(NC(=O)c2sc3cc(F)ccc3c2Cl)c(C)c(C)c1OCC(=O)NC(C)C [XI-03, 3-chloro-6-fluoro-N-(5-(2-(isopropylamino)-2-oxoethoxy)-3,4,6-trimethylpyridin-2-yl)benzo[b]thiophene-2-carboxamide] | ≥ 50 | 49.9
Cc1nc(NC(=O)c2sc3ccccc3c2Br)c(C)c(C)c1O [Compound X-22, 3-bromo-N-(5-hydroxy-3,4,6-trimethylpyridin-2-yl)benzo[b]thiophene-2-carboxamide] | 26.8 | 19.7
Cc1nc(NC(=O)c2cc3ccccc3[nH]2)c(C)c(C)c1O [Compound X-01, N-(5-hydroxy-3,4,6-trimethylpyridin-2-yl)-1H-indole-2-carboxamide] | 43.2 | 34
